Source: US8778935B2 (Centro Nacional de Investigaciones Oncologicas (CNIO), priority 2009, dated 2014)
Where two headings read alike, the source gives them in different places.

Experiments:
PI3K (p110α/p85α) = target: T1, PI3K (p110α/p85α) (Homo sapiens, UniProt P42336); assay: PI3K Activity Assay (ADP Hunter Plus); assay type: biochemical
T1 construct: purchased Carna Biosciences 07CBS-0402A
Procedure: The kinase activity was measured by using the commercial ADP Hunter™ Plus assay available from DiscoveRx (#33-016), which is a homogeneous assay to measure the accumulation of ADP, a universal product of kinase activity. […] Reaction was carried out for 1 hour at 25° C. Reagent A and B were sequentially added to the wells and plates were incubated for 30 min at 37° C. […] Values were normalized against the control activity included for each enzyme (i.e., 100% PI3 kinase activity, without compound). These values were plot against the inhibitor concentration and were fit to a sigmoid dose-response curve by using the Graphad software.

phospho-Ser-473-Akt = assay: PI3K signalling: AKT phosphorylation inhibition, Western blot analysis; assay type: cell-based; details: Homo sapiens, cell assay, read-out: IC50 of AKT Phosphorylation Inhibition (p-AKT cell)
Procedure: Cell culture: The cell lines were obtained from the American Type Culture Collection (ATCC). U2OS (human osteosarcoma) was cultured in Dulbecco's modified Eagle's medium (DMEM). PC3 (human prostate carcinoma), MCF7 (human breast cardinoma), HCT116 (human colon carcinoma), […], U251 (human glyoblastoma) were grown in RPMI. All media were supplemented with 10% fetal bovine serum (FBS) (Sigma) and antibiotics-antimycotics. Cell were maintained in a humidified incubator at 37° C. with 5% CO2 and passaged when confluent using trypsin/EDTA.
AKT phosphorylation Inhibition. Western Blot Analysis: Subconfluent cells were incubated under different conditions and washed twice with TBS prior to lysis. Lysis buffer was added containing 50 mM Tris HCl, 150 mM NaCl, 1% NP-40, 2 mM Na3VO4, 100 mM NaF, 20 mM Na4P2O7 and protease inhibitor cocktail (Roche Molecular Biochemicals). The proteins were resolved on 10% SDS-PAGE and transferred to nitrocellulose membrane (Schleicher & Schuell, Dassel, Germany). The membranes were incubated overnight at 4° C. with antibodies specific for Akt, phospho-Ser-473-Akt (Cell Signaling Technology) and α-tubulin (Sigma), they were washed and then incubated with IRDye800 conjugated anti-mouse and Alexa Fluor 680 goat anti-rabbit IgG secondary antibodies. The bands were visualized using an Odyssey infrared imaging system (Li-Cor Biosciences).

[1] = quantitative results, read-out: PI3Kα IC50
[2] = semi-quantitative results, read-out: PI3Kα IC50 (semi-quantitative class)
[3] = quantitative results of Table 4, read-out: PI3Kα IC50
[4] = PI3Kα activity, quantitative results, read-out: PI3Kα IC50

T1 sequence (P42336 whole entry): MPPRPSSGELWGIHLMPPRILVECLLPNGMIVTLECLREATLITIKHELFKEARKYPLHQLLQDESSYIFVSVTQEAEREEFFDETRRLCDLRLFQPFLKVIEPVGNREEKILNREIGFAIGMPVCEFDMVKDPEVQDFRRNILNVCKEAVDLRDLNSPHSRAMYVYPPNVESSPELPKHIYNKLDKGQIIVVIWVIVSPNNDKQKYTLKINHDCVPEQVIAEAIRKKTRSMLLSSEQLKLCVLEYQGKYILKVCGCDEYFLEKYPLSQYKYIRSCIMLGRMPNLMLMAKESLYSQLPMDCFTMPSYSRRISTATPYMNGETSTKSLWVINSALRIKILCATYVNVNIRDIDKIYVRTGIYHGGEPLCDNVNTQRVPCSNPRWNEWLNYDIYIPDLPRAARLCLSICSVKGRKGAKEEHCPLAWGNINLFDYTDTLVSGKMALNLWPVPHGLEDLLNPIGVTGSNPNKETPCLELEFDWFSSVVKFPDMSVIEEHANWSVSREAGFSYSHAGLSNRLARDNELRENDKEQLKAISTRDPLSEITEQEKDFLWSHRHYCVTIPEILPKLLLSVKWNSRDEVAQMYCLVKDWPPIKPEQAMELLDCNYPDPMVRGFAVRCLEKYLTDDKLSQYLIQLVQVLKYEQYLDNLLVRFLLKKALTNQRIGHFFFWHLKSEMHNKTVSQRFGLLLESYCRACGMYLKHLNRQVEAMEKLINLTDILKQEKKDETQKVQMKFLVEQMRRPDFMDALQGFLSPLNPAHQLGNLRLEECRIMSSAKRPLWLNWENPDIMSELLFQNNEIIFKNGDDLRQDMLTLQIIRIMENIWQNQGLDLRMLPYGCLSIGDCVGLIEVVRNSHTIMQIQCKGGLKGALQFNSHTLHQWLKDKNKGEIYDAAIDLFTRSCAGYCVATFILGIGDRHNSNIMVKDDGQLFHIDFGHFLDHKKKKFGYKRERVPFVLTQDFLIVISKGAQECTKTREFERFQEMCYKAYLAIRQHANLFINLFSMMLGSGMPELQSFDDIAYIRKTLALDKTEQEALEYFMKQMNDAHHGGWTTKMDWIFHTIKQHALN
T1 sequence (P27986 whole entry partner): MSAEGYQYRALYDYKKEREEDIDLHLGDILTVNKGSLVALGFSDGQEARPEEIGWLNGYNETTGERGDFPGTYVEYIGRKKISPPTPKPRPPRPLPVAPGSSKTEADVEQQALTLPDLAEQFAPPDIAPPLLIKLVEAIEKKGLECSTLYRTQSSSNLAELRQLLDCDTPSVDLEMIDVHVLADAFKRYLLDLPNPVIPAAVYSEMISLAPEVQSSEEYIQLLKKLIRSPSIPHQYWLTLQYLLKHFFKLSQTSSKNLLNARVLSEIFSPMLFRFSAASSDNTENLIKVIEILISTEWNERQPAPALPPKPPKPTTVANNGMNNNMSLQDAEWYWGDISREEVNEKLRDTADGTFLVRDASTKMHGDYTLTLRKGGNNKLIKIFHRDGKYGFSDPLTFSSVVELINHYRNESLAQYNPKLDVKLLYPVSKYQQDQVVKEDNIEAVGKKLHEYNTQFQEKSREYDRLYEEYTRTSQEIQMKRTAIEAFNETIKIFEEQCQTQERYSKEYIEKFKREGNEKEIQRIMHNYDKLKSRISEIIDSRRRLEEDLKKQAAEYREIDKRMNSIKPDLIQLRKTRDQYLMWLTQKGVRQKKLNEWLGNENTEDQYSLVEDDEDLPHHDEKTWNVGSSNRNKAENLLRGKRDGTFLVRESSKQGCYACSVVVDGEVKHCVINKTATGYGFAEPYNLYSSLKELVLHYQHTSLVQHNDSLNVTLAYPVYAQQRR

With CCOC(=O)c1cn2cc(-c3cccc(O)c3)nc(N3CCOCC3)c2n1 [2-01, ethyl 6-(3-hydroxyphenyl)-8-morpholinoimidazo[1,2-a]pyrazine-2-carboxylate] the IC50 (PI3K (p110α/p85α); [1]) was 158 nM, the IC50 (PI3K (p110α/p85α); [2]) was 100 to 1000 nM and the IC50 (phospho-Ser-473-Akt) was 132 nM.
CS(=O)(=O)N1CCN(Cc2cn3cc(-c4cccc(O)c4)nc(N4CCOCC4)c3n2)CC1 [2-10, 1-(4-((6-(3-hydroxyphenyl)-8-morpholinoimidazo[1,2-a]pyrazin-2-yl)methyl)-piperazin-1-yl)sulfonylmethane] showed an IC50 (phospho-Ser-473-Akt) of 48 nM.
In the case of Oc1cccc(-c2cn3cc(C(F)(F)F)nc3c(N3CCOCC3)n2)c1 [2-13, 3-(2-(trifluoromethyl)-8-morpholinoimidazo[1,2-a]pyrazin-6-yl)phenol], the IC50 (PI3K (p110α/p85α); [1]) is reported as 108 nM, the IC50 (PI3K (p110α/p85α); [2]) is reported as 100 to 1000 nM and the IC50 (phospho-Ser-473-Akt) is reported as 714 nM.
Compound CS(=O)(=O)N1CCN(C(=O)c2cn3cc(-c4cccc5[nH]ncc45)nc(N4CCOCC4)c3n2)CC1 [2-16, (6-(1H-indazol-4-yl)-8-morpholinoimidazo[1,2-a]pyrazin-2-yl)(4-sulfonylmethyl-piperazin-1-yl)methanone] has an IC50 (PI3K (p110α/p85α); [1]) of 254 nM and an IC50 (phospho-Ser-473-Akt) of 503 nM.
CS(=O)(=O)N1CCN(Cc2cn3cc(-c4cccc5[nH]ncc45)nc(N4CCOCC4)c3n2)CC1 [2-17, 6-(1H-indazol-4-yl)-2-((4-sulfonylmethylpiperazin-1-yl)methyl)-8-morpholino-imidazo[1,2-a]pyrazine] was tested, and the IC50 (phospho-Ser-473-Akt) was 391 nM.
Compound CCNC(=O)c1cn2cc(-c3cccc4[nH]ncc34)nc(N3CCOCC3)c2n1 [2-74, N-ethyl-6-(1H-indazol-4-yl)-8-morpholinoimidazo[1,2-a]pyrazine-2-carboxamide] has an IC50 (PI3K (p110α/p85α); [1]) of 92 nM and an IC50 (phospho-Ser-473-Akt) of 37 nM.
In the case of CNC(=O)c1cn2cc(-c3cccc4[nH]ncc34)nc(N3CCOCC3)c2n1 [2-79], the IC50 (PI3K (p110α/p85α); [1]) is reported as 110 nM and the IC50 (phospho-Ser-473-Akt) is reported as 42 nM.
With NC(=O)c1cn2cc(-c3cccnc3)nc(N3CCCCC3)c2n1 [2-119] the IC50 (PI3K (p110α/p85α); [3]) was 93 nM and the IC50 (phospho-Ser-473-Akt) was 87 nM.
In the case of O=C(NCCN1CCOCC1)c1cn2cc(-c3cccc4[nH]ncc34)nc(N3CCOCC3)c2n1 [2-142], the IC50 (PI3K (p110α/p85α); [3]) is reported as 38 nM and the IC50 (phospho-Ser-473-Akt) is reported as 116 nM.
COCCNC(=O)c1cn2cc(-c3cccnc3)nc(N3CCOCC3)c2n1 [2-154] gave an IC50 (PI3K (p110α/p85α); [3]) of 166 nM and an IC50 (phospho-Ser-473-Akt) of 1050 nM.
Work on Nc1ncc(-c2cn3cc(C(=O)NCCN4CCOCC4)nc3c(N3CCOCC3)n2)cn1 [2-164] yielded an IC50 (PI3K (p110α/p85α); [3]) of 11 nM and an IC50 (phospho-Ser-473-Akt) of 34 nM.
With Nc1ncc(-c2cn3cc(C4CC4)nc3c(N3CCOCC3)n2)cn1 [2-171] the IC50 (PI3K (p110α/p85α); [4]) was 50 nM and the IC50 (phospho-Ser-473-Akt) was 379 nM.
Compound Nc1ncc(-c2cn3cc(C(F)(F)F)nc3c(N3CCOCC3)n2)cn1 [2-172] has an IC50 (PI3K (p110α/p85α); [4]) of 32 nM and an IC50 (phospho-Ser-473-Akt) of 149 nM.
Nc1ncc(-c2cn3cc(CN4CCOCC4)nc3c(N3CCOCC3)n2)cn1 [2-175] gave an IC50 (PI3K (p110α/p85α); [4]) of 83 nM and an IC50 (phospho-Ser-473-Akt) of 469 nM.
Work on COCCNC(=O)c1cn2cc(-c3cccc4[nH]ncc34)nc(N3CCOCC3)c2n1 [2-186] yielded an IC50 (PI3K (p110α/p85α); [4]) of 66 nM and an IC50 (phospho-Ser-473-Akt) of 281 nM.
Compound CCOC(=O)N1CCC(NC(=O)c2cn3cc(-c4cnc(N)nc4)nc(N4CCOCC4)c3n2)CC1 [2-188] has an IC50 (PI3K (p110α/p85α); [4]) of 3 nM and an IC50 (phospho-Ser-473-Akt) of 60 nM.
Work on Nc1ncc(-c2cn3cc(C(=O)N[C@H]4CC[C@H](O)CC4)nc3c(N3CCOCC3)n2)cn1 [2-192] yielded an IC50 (PI3K (p110α/p85α); [4]) of 10 nM and an IC50 (phospho-Ser-473-Akt) of 70 nM.
Cc1ncc(-c2cn3cc(CN4CCN(S(C)(=O)=O)CC4)nc3c(N3CCOCC3)n2)cn1 [2-196] gave an IC50 (PI3K (p110α/p85α); [4]) of 21 nM and an IC50 (phospho-Ser-473-Akt) of 134 nM.
C[C@@H]1CN(C(=O)OC(C)(C)C)C[C@H](C)N1Cc1cn2cc(-c3cnc(N)nc3)nc(N3CCOCC3)c2n1 [2-218] was tested, and the IC50 (PI3K (p110α/p85α); [4]) was 28 nM.
With C[C@@H]1CN(S(C)(=O)=O)C[C@H](C)N1Cc1cn2cc(-c3cnc(N)nc3)nc(N3CCOCC3)c2n1 [2-219] the IC50 (PI3K (p110α/p85α); [4]) was 3 nM and the IC50 (phospho-Ser-473-Akt) was 244 nM.
Work on CCS(=O)(=O)N1CCN(Cc2cn3cc(-c4cnc(N)nc4)nc(N4CCOCC4)c3n2)CC1 [2-220] yielded an IC50 (PI3K (p110α/p85α); [4]) of 13 nM and an IC50 (phospho-Ser-473-Akt) of 98 nM.
CC(C)CS(=O)(=O)N1CCN(Cc2cn3cc(-c4cnc(N)nc4)nc(N4CCOCC4)c3n2)CC1 [2-221] showed an IC50 (PI3K (p110α/p85α); [4]) of 11 nM and an IC50 (phospho-Ser-473-Akt) of 135 nM.
For Nc1ncc(-c2cn3cc(CN4CCS(=O)(=O)CC4)nc3c(N3CCOCC3)n2)cn1 [2-222], the IC50 (PI3K (p110α/p85α); [4]) was 82 nM and the IC50 (phospho-Ser-473-Akt) was 95 nM.
COC(=O)CC1COCCN1c1nc(-c2cnc(N)nc2)cn2cc(C)nc12 (centres unmarked) [2-224] showed an IC50 (PI3K (p110α/p85α); [4]) of 25400 nM.
Nc1ncc(-c2cn3cc(CN4CCNCC4)nc3c(N3CCOCC3)n2)cn1 [2-226] was tested, and the IC50 (PI3K (p110α/p85α); [4]) was 77 nM.
COC(=O)C1COCCN1c1nc(-c2cnc(N)nc2)cn2cc(C)nc12 (centres unmarked) [2-227] gave an IC50 (PI3K (p110α/p85α); [4]) of 6090 nM.
Nc1ncc(-c2cn3cc(CN4CCC(O)CC4)nc3c(N3CCOCC3)n2)cn1 [2-229] gave an IC50 (PI3K (p110α/p85α); [4]) of 114 nM.
With CN(C)CC(=O)N1CCN(Cc2cn3cc(-c4cnc(N)nc4)nc(N4CCOCC4)c3n2)CC1 [2-230] the IC50 (PI3K (p110α/p85α); [4]) was 34 nM.
For CC(=O)O[C@H](C)C(=O)N1CCN(Cc2cn3cc(-c4cnc(N)nc4)nc(N4CCOCC4)c3n2)CC1 [2-231], the IC50 (PI3K (p110α/p85α); [4]) was 85 nM.
CC(C)(c1cn2cc(-c3cnc(N)nc3)nc(N3CCOCC3)c2n1)N1CCN(S(C)(=O)=O)CC1 [2-242] was tested, and the IC50 (PI3K (p110α/p85α); [4]) was 16 nM.
Cc1cnc2c(N3CCOCC3)nc(-c3ccc(NC(=O)Nc4cccc(C(=O)O)c4)cc3)cn12 [2-244] gave an IC50 (PI3K (p110α/p85α); [4]) of 144 nM.
